Experiments:
MPP+ treated PC-12 cells = test: Effect on MPP+ treated PC-12 cells (neuroprotection, LDH release); assay type: cell-based; details: 1000 μM MPP+ for 48 hours, LDH in medium
Experimental: Pheochromocytoma PC-12 cells (at a density of 200,000 cells/well) were cultured for 10 days with 50 ng/ml NGF on 6-well culture dishes coated with […] rat tail type I collagen (BD Biosciences, Bedford, Mass., USA). At the day of the experiment the morphological differentiation of the cells was very advanced (typical network formation). In order to initiate the neurotoxic insult, cells were treated with 1000 μM of 1-methyl-4-phenylpyrdinium (MPP+) iodide salt from RBI chemicals (Natick, Mass., USA) for 48 hours in the absence or presence of tested compounds, added to the culture 30 min. prior to MPP+ administration. […] At the cellular level, neuronal cell death is induced by several mechanisms including pathological concentrations of intracellular calcium and free oxygen radicals. Therefore the positive controls in this experiment were nimodipine at the concentration of 10 μM (RBI chemicals, Natick, Mass., USA) (a potent L-type calcium channel blocker) and 4-hydroxy-2,2,6,6-tetramethylpiperidyne-1-oxyl (tempol, a potent antioxidant) at a concentration of 500 μM, (Sigma, St Louis, Mo., USA). At the end of the experiment cell death was measured by assessing Lactate dehydrogenase (LDH) activity in the medium. High medium LDH indicated increased neuronal death that promoted leakage of this cytoplasmic enzyme into the medium.
Measuring lactate dehydrogenase activity in the medium was performed using a Sigma Diagnostics LD-L reagent. LDH activity was spectrophotometrically monitored at 340 nm by following the rate of conversion of oxidized nicotinamide adenine dinucleotide (NAD^+) to the reduced form of (NADH). Total LDH of each culture (extracellular+intracellular) was obtained by measuring LDH in the medium after freezing and thawing of the cultures. Basal LDH release was measured in untreated cultures (no MPP+). The neurotoxic effect was calculated according to the formula: (LDHs−LDHb)/LDHt×100. (s=sample; b=basal; t=total). Each compound was tested in sixplicate.
To calculate the percentage of neuroprotection for each set of sixplicate experiments, the average neurotoxicity was calculated and the following calculation was undertaken: 100−([neurotoxicity test compound/neurotoxicity MPP^+]×100).

EAE = test: Experimental Allergic Encephalomyelitis (EAE) model of MS; assay type: in vivo, mice; details: for incidence Value: mice, 10/group; for GMS % inhibition (first GMS column) / GMS % inhibition (second GMS column) / incidence % inhibition: vs methyl cellulose control; for GMS Value (first GMS column) / GMS Value (second GMS column): EAE score scale 0-5
[1] = Dose 1 μM, NGF-differentiated PC-12 cells
[2] = Dose 10 μM, NGF-differentiated PC-12 cells
[3] = 2 × 10 mg/kg oral (twice a day)

| Structure (SMILES) | % neuroprotection (MPP+ treated PC-12 cells; [1]) | % neuroprotection (MPP+ treated PC-12 cells; [2]) | Mean duration (EAE; 2 × 5 mg/kg oral) [days] | incidence Value (EAE; 2 × 5 mg/kg oral (twice a day)) | GMS % inhibition (first GMS column) (EAE; 2 × 5 mg/kg oral) [%] | GMS % inhibition (second GMS column) (EAE; 2 × 5 mg/kg oral) [%] | incidence % inhibition (EAE; 2 × 5 mg/kg oral) [%] | GMS Value (first GMS column) (EAE; 2 × 5 mg/kg oral) | GMS Value (second GMS column) (EAE; 2 × 5 mg/kg oral) | Mean duration (EAE; 2 × 10 mg/kg oral) [days] | incidence Value (EAE; [3]) | GMS % inhibition (first GMS column) (EAE; 2 × 10 mg/kg oral) [%] | GMS % inhibition (second GMS column) (EAE; 2 × 10 mg/kg oral) [%] | incidence % inhibition (EAE; 2 × 10 mg/kg oral) [%] | GMS Value (first GMS column) (EAE; 2 × 10 mg/kg oral) | GMS Value (second GMS column) (EAE; 2 × 10 mg/kg oral) | % neuroprotection (MPP+ treated PC-12 cells; Dose 1000 μM (positive control)) [%] |
| --- | --- | --- | --- | --- | --- | --- | --- | --- | --- | --- | --- | --- | --- | --- | --- | --- | --- |
| C#CCNC1CCc2ccc3nc(N)sc3c21.Cl.Cl (stereo not drawn) [Compound B-1, N8-prop-2-ynyl-7,8-dihydro-6H-1-thia-3-aza-as-indacene-2,8-diamine diHCl] | 60-87% | 58-81% | 0.1 ± 0.3 | 1/10 | 90.0 | 99.2 | 75.0 | 0.1 ± 0.3 | 0.005 ± 0.02 | 3.3 ± 7.0 | 2/10 | 60.0 | 50.0 | 50.0 | 0.4 ± 1.0 | 0.3 ± 0.8 | – |
| CC1(C)CC(O)CC(C)(C)N1[O] [Tempol, 4-hydroxy-2,2,6,6-tetramethylpiperidyne-1-oxyl, reference compound] | – | – | – | – | – | – | – | – | – | – | – | – | – | – | – | – | 100 |
| C#CCNC1CCc2cc3sc(N)nc3cc21.Cl.Cl (stereo not drawn) [Compound A-1, N5-prop-2-ynyl-6,7-dihydro-5H-1-thia-3-aza-s-indacene-2,5-diamine diHCl] | 50% | 60% | 3.0 ± 6.3 | 2/10 | 40.0 | 33.3 | 50.0 | 0.6 ± 1.3 | 0.4 ± 0.8 | 1.8 ± 5.7 | 1/10 | 70.0 | 66.7 | 75.0 | 0.3 ± 0.9 | 0.2 ± 0.6 | – |

From US20050197365A1, “Diamino thiazoloindan derivatives and their use” (priority 2004, published 2005)
